Data from paper PMC13266999, “Designing Antibiotics with Inherent Resistance to Efflux as a Strategy to Revive Discovery against Multidrug-Resistant Pathogens” (Journal of Medicinal Chemistry, 2026).
Values after ≈ are worked out from the molar mass of the structure shown. Where two headings read alike, the source gives them in different places.

Legend:
E. faecalis = assay: MIC (microbroth dilution); assay type: cell-based, Enterococcus faecalis
Protocol: (§1) All bacteria were maintained on tryptic soy agar (TSA), except Streptococcus spp., which were maintained on Columbia agar plates containing 5% horse blood. […] Bacteria were grown to stationary phase in liquid culture overnight, with shaking at 200 rpm, before being back diluted to the relevant starting concentration for each assay below. MICs were measured by the microbroth dilution method. […] Absorbance at OD600 was read on a CLARIOstar spectrophotometer (BMG Labtech) and the MIC was defined as the minimum concentration of compound where no visible growth was detected. […] MICs were also performed in the presence of the outer membrane permeator, polymyxin b nonapeptide (PMBN) following the same MIC method but with the following variation. The 2-fold dilution series of compound was prepared as above, then 50 μL of PMBN at a final concentration of 30 μg/mL was added to relevant wells, while 50 μL/well of blank media was added to the remaining wells. Bacteria were then added at 50 μL/well for a starting concentration as above. […] The MICs were read and defined as above. All animal procedures were performed by the contract research organization Pharmacology Discovery Services Taiwan in accordance with the Guide for the Care and Use of Laboratory Animals. The procedures were approved by the Institutional Ethics Committee of Pharmacology Discovery Services Taiwan, Ltd. (approval no. AB127662), in compliance with animal welfare legislation in Taiwan.

E. faecium = assay: MIC (microbroth dilution); assay type: cell-based, Enterococcus faecium
Protocol: (§2) All bacteria were maintained on tryptic soy agar (TSA), except Streptococcus spp., which were maintained on Columbia agar plates containing 5% horse blood. All bacterial assays were carried out in tryptic soy broth (TSB), except for Streptococcus spp. which were grown in cation-adjusted Mueller Hinton broth containing 2.5% lysed horse blood. Bacteria were grown to stationary phase in liquid culture overnight, with shaking at 200 rpm, before being back diluted to the relevant starting concentration for each assay below. MICs were measured by the microbroth dilution method. […] Absorbance at OD600 was read on a CLARIOstar spectrophotometer (BMG Labtech) and the MIC was defined as the minimum concentration of compound where no visible growth was detected. The compounds were prepared as a DMSO stock and equivalent concentrations of DMSO had no effect on bacterial growth. MICs were also performed in the presence of the outer membrane permeator, polymyxin b nonapeptide (PMBN) following the same MIC method but with the following variation. The 2-fold dilution series of compound was prepared as above, then 50 μL of PMBN at a final concentration of 30 μg/mL was added to relevant wells, while 50 μL/well of blank media was added to the remaining wells. Bacteria were then added at 50 μL/well for a starting concentration as above. Thirty μg/mL of PMBN had no effect on bacterial growth. The MICs were read and defined as above. All animal procedures were performed by the contract research organization Pharmacology Discovery Services Taiwan in accordance with the Guide for the Care and Use of Laboratory Animals. The procedures were approved by the Institutional Ethics Committee of Pharmacology Discovery Services Taiwan, Ltd. (approval no. AB127662), in compliance with animal welfare legislation in Taiwan.

S. haemolyticus = assay: MIC (microbroth dilution); assay type: cell-based, Staphylococcus haemolyticus; conditions: SH324
Protocol: as §2

Acinetobacter baumannii = assay: MIC (microbroth dilution); assay type: cell-based
Protocol: as §2

Pseudomonas aeruginosa = assay: MIC (microbroth dilution); assay type: cell-based
Protocol: as §2

E. coli = assay: MIC (microbroth dilution); assay type: cell-based; conditions: Escherichia coli
Protocol: as §1

A. baumannii = A. baumannii efflux chequerboard assay; assay type: cell-based, Acinetobacter baumannii; conditions: for MIC: Acinetobacter baumannii
Protocol: Checkerboard assays were performed by preparing two separate 2-fold dilution series of compounds in two 96 well plates, one horizontally, one vertically. […] Plates were incubated at 37 C for 20 h and the absorbance (OD600) was read on a CLARIOstar spectrophotometer (BMG Labtech). The fractional inhibitory concentration was calculated as follows: ΣFIC = [(MIC of A in combination)/(MIC of A alone)] + [(MIC of B in combination)/(MIC of B alone)].

S. aureus NCTC 13616 = assay: Time-kill assay; assay type: cell-based; conditions: 4x MIC, 24 hours
Protocol: Time-kill assays were performed as defined previously.

S. aureus = assay: MIC (microbroth dilution); assay type: cell-based, Staphylococcus aureus; conditions: Staphylococcus aureus
Protocol: as §1

[1] = Enterococcus faecalis, NCTC775, NCTC 775, read-out: MIC
[2] = Enterococcus faecalis, NCTC12204, NCTC 12204, read-out: MIC
[3] = ATCC9144, ATCC 9144, read-out: MIC
[4] = NCTC13277, NCTC 13277, read-out: MIC
[5] = NCTC13616, NCTC 13616, read-out: MIC
[6] = Enterococcus faecalis, NCTC12201, NCTC 12201, read-out: MIC

## O=C(O)c1cn(C2CC2)c2cc(N3CCNCC3)c(F)cc2c1=O [Ciprofloxacin, ciprofloxacin, reference compound]
E. faecalis; EF602
  MIC: 64 µg/mL (≈ 193 µM)
E. faecalis; [1]
  MIC: 1 µg/mL (≈ 3.02 µM)
E. faecalis; [2]
  MIC: 1 µg/mL (≈ 3.02 µM)
E. faecalis; NCTC 775
  MIC: 1 µg/mL (≈ 3.02 µM)
E. faecium; EF205
  MIC: 128 µg/mL (≈ 386 µM)
E. faecium; NCTC 12204
  MIC: 1 µg/mL (≈ 3.02 µM)
S. haemolyticus
  MIC: 16 µg/mL (≈ 48.3 µM)
Acinetobacter baumannii; Acinetobacter baumannii, 86, oxa23
  MIC: 128 µg/mL (≈ 386 µM)
Acinetobacter baumannii; Acinetobacter baumannii, 96, oxa23
  MIC: 128 µg/mL (≈ 386 µM)
Acinetobacter baumannii; Acinetobacter baumannii, A318
  MIC: 32 µg/mL (≈ 96.6 µM)
Acinetobacter baumannii; Acinetobacter baumannii, A319
  MIC: 32 µg/mL (≈ 96.6 µM)
Acinetobacter baumannii; Acinetobacter baumannii, A600 colR
  MIC: 32 µg/mL (≈ 96.6 µM)
Acinetobacter baumannii; Acinetobacter baumannii, AB01335 adeG183::T26
  MIC: 4 µg/mL (≈ 12.1 µM)
Acinetobacter baumannii; Acinetobacter baumannii, AB05215 adeS132::T26
  MIC: 2 µg/mL (≈ 6.04 µM)
Acinetobacter baumannii; Acinetobacter baumannii, AB05218 adeS141::T26
  MIC: 4 µg/mL (≈ 12.1 µM)
Acinetobacter baumannii; Acinetobacter baumannii, AB05219 adeR103::T26
  MIC: 4 µg/mL (≈ 12.1 µM)
Acinetobacter baumannii; Acinetobacter baumannii, AB05222 adeR160::T101
  MIC: 2 µg/mL (≈ 6.04 µM)
Acinetobacter baumannii; Acinetobacter baumannii, AB05226 adeA165::T26
  MIC: 4 µg/mL (≈ 12.1 µM)
Acinetobacter baumannii; Acinetobacter baumannii, AB05227 adeA138::T26
  MIC: 2 µg/mL (≈ 6.04 µM)
Acinetobacter baumannii; Acinetobacter baumannii, AB05228 adeB150::T26
  MIC: 2 µg/mL (≈ 6.04 µM)
Acinetobacter baumannii; Acinetobacter baumannii, AB05230 adeB181::T26
  MIC: 2 µg/mL (≈ 6.04 µM)
Acinetobacter baumannii; Acinetobacter baumannii, BAA1709, BAA-1709, read-out: MIC
  MIC: 0.25 µg/mL (≈ 0.754 µM)
Acinetobacter baumannii; Acinetobacter baumannii, BAA1710, BAA-1710 (AYE), read-out: MIC
  MIC: 64 µg/mL (≈ 193 µM)
Acinetobacter baumannii; Acinetobacter baumannii, BAA2093, BAA-2093, read-out: MIC
  MIC: ≤ 0.125 µg/mL
Acinetobacter baumannii; Acinetobacter baumannii, NCTC10303, NCTC 10303, read-out: MIC
  MIC: 0.5 µg/mL (≈ 1.51 µM)
Acinetobacter baumannii; Acinetobacter baumannii, NCTC12156, NCTC 12156, read-out: MIC
  MIC: 1 µg/mL (≈ 3.02 µM)
Acinetobacter baumannii; Acinetobacter baumannii, NCTC13302, NCTC 13302, oxa24, read-out: MIC
  MIC: 32 µg/mL (≈ 96.6 µM)
Acinetobacter baumannii; Acinetobacter baumannii, NCTC13424, NCTC 13424, oxa23
  MIC: > 128 µg/mL
Acinetobacter baumannii; Acinetobacter baumannii, UKA1, oxa23, read-out: MIC
  MIC: 8 µg/mL (≈ 24.1 µM)
Acinetobacter baumannii; Acinetobacter baumannii, UKA2, Low resistance, read-out: MIC
  MIC: 64 µg/mL (≈ 193 µM)
Acinetobacter baumannii; Acinetobacter baumannii, UKA9, read-out: MIC
  MIC: 0.25 µg/mL (≈ 0.754 µM)
Acinetobacter baumannii; Acinetobacter baumannii, UKA12, oxa23
  MIC: > 128 µg/mL
Acinetobacter baumannii; Acinetobacter baumannii, UKA13, oxa23
  MIC: > 128 µg/mL
Acinetobacter baumannii; Acinetobacter baumannii, UKA15, oxa23, read-out: MIC
  MIC: 16 µg/mL (≈ 48.3 µM)
Acinetobacter baumannii; Acinetobacter baumannii, UKA19, read-out: MIC
  MIC: 8 µg/mL (≈ 24.1 µM)
Acinetobacter baumannii; Acinetobacter baumannii, W1, read-out: MIC
  MIC: 128 µg/mL (≈ 386 µM)
Acinetobacter baumannii; Acinetobacter baumannii, panel of 25 A. baumannii strains
  MIC50: 32 µg/mL (≈ 96.6 µM)
Acinetobacter baumannii; BAA-1710 (AYE), listed as 1
  MIC: > 128 µg/mL
Pseudomonas aeruginosa; NCTC 13437
  MIC: 64 µg/mL (≈ 193 µM)
Pseudomonas aeruginosa; Pseudomonas aeruginosa, PAO1, PAO1
  MIC: 0.25 µg/mL (≈ 0.754 µM)
E. coli; 319238/UR
  MIC: > 128 µg/mL
E. coli; LEC077
  MIC: 0.25 µg/mL (≈ 0.754 µM)
E. coli; LEC081
  MIC: 0.25 µg/mL (≈ 0.754 µM)
A. baumannii; A. baumannii ATCC 17978
  MIC +50 (0.25x MIC): 0.0017 to 0.188 µg/mL
  MIC +50 (0.5x MIC): 0.007 to 0.055 µg/mL
A. baumannii; A. baumannii AYE
  MIC +50 (0.25x MIC): 3.5 to 15.5 µg/mL
  MIC +50 (0.5x MIC): 0.188 to 0.9 µg/mL
A. baumannii; ATCC17978, read-out: MIC alone
  MIC: 0.25 µg/mL
A. baumannii; read-out: MIC alone
  MIC: 64 µg/mL
S. aureus NCTC 13616
  time-kill profile: comparable bacteriostatic profiles

## O=C(O)c1cn(C2CC2)c2cc(N3CCN[C@@H](Cc4cccc5ccccc45)C3)c(F)cc2c1=O [Compound 12, (S)-1-Cyclopropyl-6-fluoro-7-(3-(naphthalen-1-ylmethyl)piperazin-1-yl)-4-oxo-1,4-dihydroquinoline-3-carboxylic acid]
S. aureus; [3]
  MIC: 4 µg/mL (≈ 8.48 µM)
S. aureus; [4]
  MIC: 8 µg/mL (≈ 17 µM)
S. aureus; [5]
  MIC: 8 µg/mL (≈ 17 µM)
S. aureus; SA-1199, read-out: MIC
  MIC: 2 µg/mL (≈ 4.24 µM)
S. aureus; SA-1199B (NorA-overexpressing)
  MIC: 4 µg/mL (≈ 8.48 µM)
S. aureus; USA300, USA300, read-out: MIC
  MIC: 8 to 16 µg/mL (≈ 17 to 33.9 µM)
E. faecalis; [1]
  MIC: 8 µg/mL (≈ 17 µM)
E. faecalis; [6]
  MIC: 8 µg/mL (≈ 17 µM)
E. faecalis; [2]
  MIC: 8 µg/mL (≈ 17 µM)

## O=C(O)c1cn(C2CC2)c2c(Cc3cccc4ccccc34)c(N3CCNCC3)c(F)cc2c1=O [Compound 19, 1-Cyclopropyl-6-fluoro-8-(naphthalen-1-ylmethyl)-4-oxo-7-(piperazin-1-yl)-1,4-dihydroquinoline-3-carboxylic acid]
S. aureus; [3]
  MIC: 64 µg/mL (≈ 136 µM)
S. aureus; [4]
  MIC: 32 µg/mL (≈ 67.9 µM)
S. aureus; [5]
  MIC: 32 µg/mL (≈ 67.9 µM)
S. aureus; SA-1199, read-out: MIC
  MIC: 16 µg/mL (≈ 33.9 µM)
S. aureus; SA-1199B (NorA-overexpressing)
  MIC: 16 µg/mL (≈ 33.9 µM)
S. aureus; USA300, USA300, read-out: MIC
  MIC: 32 µg/mL (≈ 67.9 µM)
E. faecalis; [1]
  MIC: 16 µg/mL (≈ 33.9 µM)
E. faecalis; [6]
  MIC: 16 µg/mL (≈ 33.9 µM)
E. faecalis; [2]
  MIC: 16 µg/mL (≈ 33.9 µM)
